In patent US4202819A, “2-(3-Alanyl)clavam antibiotic” (Hoffman-La Roche Inc., priority 1979, dated 1980):
In brackets after ≈: the same amount, converted by molar mass. Like-named read-outs stand apart in the source and are kept apart here.

Key:
Experiment in all cases: in vitro antimicrobial activity (MIC), agar diffusion well method
Assay type in all cases: cell-based
[1] = tested on: Penicillium digitatum 0184 (ATCC 26821); conditions: ATCC26821, BBL Antibiotic Medium "A" Assay Agar
Protocol: (§1) The in vitro antimicrobial activity of the antibiotic (minimal inhibitory concentration) was determined by the agar diffusion well method. The results expressed in micrograms/ml were as follows: […]

[2] = tested on: Staphylococcus aureus 82 (ATCC 6538 P); conditions: ATCC6538, BBL Antibiotic Medium "A" Assay Agar
Protocol: as §1

[3] = tested on: Bacillus subtilis 558 (NRRL 558)
Protocol: as §1

[4] = tested on: Bacillus sp. TA (ATCC 27860)
Protocol: as §1

[5] = tested on: Bacillus sp. E (ATCC 27859); conditions: ATCC27859, BBL Antibiotic Medium "A" Assay Agar
Protocol: as §1

[6] = tested on: Candida albicans 155 (NRRL 477)
Protocol: as §1

[7] = tested on: Paecilomyces varioti M16 (ATCC 26820)
Protocol: as §1

[8] = tested on: Acinetobacter calcoaceticus PCI-3 (ATCC 10153)
Protocol: as §1

[9] = tested on: Pseudomonas aeruginosa 56 (ATCC 8709)
Protocol: as §1

[10] = tested on: Streptomyces cellulosae 097 (ATCC 3313)
Protocol: as §1

[11] = tested on: Klebsiella pneumoniae 369 (ATCC 27858)
Protocol: as §1

[12] = tested on: Serratia marcescens SM (ATCC 27857)
Protocol: as §1

[13] = tested on: Streptococcus faecium (ATCC 8043); conditions: Enterococcus faecium, ATCC8043; BBL Antibiotic Medium "A" Assay Agar
Protocol: as §1

[14] = tested on: Mycobacterium phlei 78 (ATCC 355); conditions: Mycolicibacterium phlei
Protocol: as §1

[15] = tested on: Saccharomyces cerevisiae 90 (ATCC 4226)
Protocol: as §1

[16] = tested on: Serratia sp. 101 (ATCC 93)
Protocol: as §1

[17] = tested on: Bacillus megaterium 164 (ATCC 8011); conditions: Priestia megaterium
Protocol: as §1

[18] = tested on: Sarcina lutea PCI (ATCC 9341); conditions: Micrococcus luteus
Protocol: as §1

[19] = tested on: Proteus vulgaris 101N (ATCC 6380); conditions: ATCC6380, BBL Antibiotic Medium "A" Assay Agar
Protocol: as §1

[20] = tested on: Escherichia coli 94 (ATCC 27856)
Protocol: as §1

## N[C@@H](CC1CN2C(=O)CC2O1)C(=O)O (some centres unmarked) [2-(3-alanyl)clavam, 3-(7-oxo-4-oxa-1-azabicyclo[3.2.0]hept-3-yl)alanine]
[1]
  MIC: > 1000 µg/mL
[2]
  MIC: > 1000 µg/mL
[3]; NRRL558, BBL Antibiotic Medium "A" Assay Agar
  MIC: > 1000 µg/mL
[3]; NRRL558, Davis Minimal Agar
  MIC: 0.25 µg/mL (≈ 0.00125 mM)
[4]; ATCC27860, BBL Antibiotic Medium "A" Assay Agar
  MIC: > 1000 µg/mL
[4]; ATCC27860, Davis Minimal Agar
  MIC: 0.03 µg/mL (≈ 0.00015 mM)
[5]
  MIC: > 1000 µg/mL
[6]; NRRL477, BBL Antibiotic Medium "A" Assay Agar
  MIC: > 1000 µg/mL
[6]; NRRL477, Davis Minimal Agar
  MIC: 500 µg/mL (≈ 2.5 mM)
[7]; ATCC26820, BBL Antibiotic Medium "A" Assay Agar
  MIC: 250 µg/mL (≈ 1.25 mM)
[7]; ATCC26820, Davis Minimal Agar
  MIC: 15.7 µg/mL (≈ 0.0784 mM)
[8]; ATCC10153, BBL Antibiotic Medium "A" Assay Agar
  MIC: > 1000 µg/mL
[8]; ATCC10153, Davis Minimal Agar
  MIC: > 500 µg/mL
[9]; Davis Minimal Agar
  MIC: > 1000 µg/mL
[9]; Pseudomonas aeruginosa, ATCC8709, BBL Antibiotic Medium "A" Assay Agar, read-out: MIC
  MIC: > 1000 µg/mL
[10]; ATCC3313, BBL Antibiotic Medium "A" Assay Agar
  MIC: > 1000 µg/mL
[10]; ATCC3313, Davis Minimal Agar
  MIC: > 500 µg/mL
[11]; ATCC27858, BBL Antibiotic Medium "A" Assay Agar
  MIC: > 1000 µg/mL
[11]; ATCC27858, Davis Minimal Agar
  MIC: 62.5 µg/mL (≈ 0.312 mM)
[12]; ATCC27857, BBL Antibiotic Medium "A" Assay Agar
  MIC: > 1000 µg/mL
[12]; ATCC27857, Davis Minimal Agar
  MIC: > 500 µg/mL
[13]
  MIC: > 1000 µg/mL
[14]; ATCC355, BBL Antibiotic Medium "A" Assay Agar
  MIC: > 1000 µg/mL
[14]; ATCC355, Davis Minimal Agar
  MIC: > 500 µg/mL
[15]; ATCC4226, BBL Antibiotic Medium "A" Assay Agar
  MIC: > 1000 µg/mL
[15]; ATCC4226, Davis Minimal Agar
  MIC: 125 µg/mL (≈ 0.624 mM)
[16]; ATCC93, BBL Antibiotic Medium "A" Assay Agar
  MIC: > 1000 µg/mL
[16]; ATCC93, Davis Minimal Agar
  MIC: 500 µg/mL (≈ 2.5 mM)
[17]; ATCC8011, BBL Antibiotic Medium "A" Assay Agar
  MIC: > 1000 µg/mL
[17]; ATCC8011, Davis Minimal Agar
  MIC: > 500 µg/mL
[18]; ATCC9341, BBL Antibiotic Medium "A" Assay Agar
  MIC: > 1000 µg/mL
[18]; ATCC9341, Davis Minimal Agar
  MIC: > 500 µg/mL
[19]
  MIC: > 1000 µg/mL
[20]; ATCC27856, BBL Antibiotic Medium "A" Assay Agar
  MIC: > 1000 µg/mL
[20]; ATCC27856, Davis Minimal Agar
  MIC: 1000 µg/mL (≈ 5 mM)
